Measurements from US20250230193A1, “CYCLIC COMPOUND HAVING SELECTIVE KRAS INHIBITORY EFFECT ON HRAS AND NRAS” (CHUGAI SEIYAKU KABUSHIKI KAISHA, priority 2022, published 2025).
Where a SMILES comes first, the peptide text is derived from it. Bridges are numbered along the chain shown (N, C = ends). [ ]: non-standard residue; d: D form. The star is where a group is joined. hPhe(3,5-F2-4-CF3) = N[C@@H](CCc1cc(F)c(C(F)(F)F)c(F)c1)C(=O)O; hPhe(3-Cl-4-CF3) = N[C@@H](CCc1ccc(C(F)(F)F)c(Cl)c1)C(=O)O; NPrPhe(4-CF3) = CCCN[C@@H](Cc1ccc(C(F)(F)F)cc1)C(=O)O; NMeGly(cPent) = CN[C@H](C(=O)O)C1CCCC1; NMeD = CN[C@@H](CC(=O)O)C(=O)O; NMeL = CN[C@@H](CC(C)C)C(=O)O; αMeS = C[C@](N)(CO)C(=O)O; Morpholide = C1CN(*)CCO1; Ac5c = NC1(C(=O)O)CCCC1; Abu = CC[C@H](N)C(=O)O; Sar = CNCC(=O)O; tBu = CC(C)(C)*

Assays:
[1] = biological target: GDP-bound NRAS wild-type protein (Homo sapiens, UniProt P01111); assay: Binding to NRAS by surface plasmon resonance (SPR), Single Cycle Kinetics; settings: SPR; for NRAS/KRAS (ratio of KD value with respect to NRAS to KD value with respect to KRAS) / NRAS/KRAS (ratio of KD value for NRAS to KD value for KRAS): GDP-bound NRAS wild-type vs GDP-bound KRAS wild-type
[2] = biological target: GDP-bound HRAS wild-type protein (Homo sapiens, UniProt P01112); assay: Binding to HRAS by surface plasmon resonance (SPR), Single Cycle Kinetics; settings: SPR; for HRAS/KRAS (ratio of KD value with respect to HRAS to KD value with respect to KRAS) / HRAS/KRAS (ratio of KD value for HRAS to KD value for KRAS): GDP-bound HRAS wild-type vs GDP-bound KRAS wild-type
Chain of GDP-bound HRAS wild-type protein (P01112 whole entry): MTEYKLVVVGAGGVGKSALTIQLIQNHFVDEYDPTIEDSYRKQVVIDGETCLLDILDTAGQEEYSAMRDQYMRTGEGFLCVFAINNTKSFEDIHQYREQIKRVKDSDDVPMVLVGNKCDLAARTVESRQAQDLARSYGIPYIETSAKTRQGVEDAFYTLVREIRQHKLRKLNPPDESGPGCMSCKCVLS

Chain of GDP-bound NRAS wild-type protein (P01111 whole entry): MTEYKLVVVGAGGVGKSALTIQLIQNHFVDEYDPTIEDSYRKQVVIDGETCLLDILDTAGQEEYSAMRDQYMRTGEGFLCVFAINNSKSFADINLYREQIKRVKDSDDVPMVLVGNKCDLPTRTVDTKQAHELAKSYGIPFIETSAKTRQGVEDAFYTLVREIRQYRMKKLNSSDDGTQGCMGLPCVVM

CC[C@H](C)[C@@H]1NC(=O)[C@H](C2CCC2)N(C)C(=O)C[C@@H](C(=O)N(C)CC)N(C)C(=O)[C@H](C2CCCC2)N(C)C(=O)C2(CCC2)NC(=O)[C@@H]2C[C@H](C)CN2C(=O)[C@H](CCc2cc(F)c(C(F)(F)F)c(F)c2)NC(=O)CN(C)C(=O)[C@H](Cc2ccc(C(F)(F)F)cc2)N2CC/C=C\C[C@@H](C2=O)N(C)C(=O)CN(C)C1=O [PP2082]
NRAS/KRAS (ratio of KD value with respect to NRAS to KD value with respect to KRAS) [1]: AA (a compound having 20 or more is denoted as AA) | HRAS/KRAS (ratio of KD value with respect to HRAS to KD value with respect to KRAS) [2]: A (a compound having 10 or more and less than 20 is denoted as A)

CCO[C@@H]1C[C@H]2C(=O)NC3(CCC3)C(=O)N(C)[C@@H](C3CCCC3)C(=O)N(C)[C@H](C(=O)N3CCOCC3)CC(=O)N(C)[C@@H](CC(C)(C)C)C(=O)N[C@@H]([C@@H](C)CC)C(=O)N(C)CC(=O)N(C)[C@H]3CCCCN(C3=O)[C@@H](Cc3ccc(C(F)(F)F)cc3)C(=O)N(C)CC(=O)N[C@@H](CCc3cc(F)c(C(F)(F)F)c(F)c3)C(=O)N2C1 [PP0714]
NRAS/KRAS (ratio of KD value with respect to GDP-bound NRAS wild-type protein to KD value with respect to KRAS) ([1]; KD ratio NRAS/KRAS): C (A compound having a KD ratio of 0.1 or more and less than 3 is denoted as C) | HRAS/KRAS (ratio of KD value with respect to GDP-bound HRAS wild-type protein to KD value with respect to KRAS) ([2]; KD ratio HRAS/KRAS): B (a compound having 3 or more and less than 10 is denoted as B)

CCC[C@H]1C(=O)N[C@@H]([C@@H](C)CC)C(=O)N2CCC[C@H]2C(=O)N(C)[C@H]2C/C=C\CCN(C2=O)[C@@H](Cc2ccc(C(F)(F)F)cc2)C(=O)N(C)CC(=O)N[C@@H](CCc2ccc(C(F)(F)F)c(OC)c2)C(=O)N2C[C@H](OCC)C[C@H]2C(=O)N(C)C2(CCC2)C(=O)N(C)[C@@H](C2CCCC2)C(=O)N(C)[C@H](C(=O)N2CCCCC2)CC(=O)N1C [PP3099]
NRAS/KRAS (ratio of KD value with respect to GDP-bound NRAS wild-type protein to KD value with respect to KRAS) ([1]; KD ratio NRAS/KRAS, GDP-bound wild-type proteins): A (a compound having 10 or more and less than 20 is denoted as A) | HRAS/KRAS (ratio of KD value with respect to GDP-bound HRAS wild-type protein to KD value with respect to KRAS) ([2]; KD ratio HRAS/KRAS, GDP-bound wild-type proteins): A (a compound having 10 or more and less than 20 is denoted as A)

CC[C@H](C)[C@@H]1NC(=O)[C@H](CC(C)C)N(C)C(=O)C[C@@H](C(=O)N2CCOCC2)N(C)C(=O)[C@H](C2CCCC2)N(C)C(=O)C(C)(C)NC(=O)[C@@H]2CCCN2C(=O)[C@H](CCc2cc(F)c(C(F)(F)F)c(F)c2)NC(=O)CN(C)C(=O)[C@H](Cc2ccc(C(F)(F)F)cc2)N2CCCC[C@@H](C2=O)N(C)C(=O)CN(C)C1=O [PP0565]
NRAS/KRAS (ratio of KD value with respect to GDP-bound NRAS wild-type protein to KD value with respect to KRAS) ([1]; KD ratio NRAS/KRAS): C (A compound having a KD ratio of 0.1 or more and less than 3 is denoted as C) | HRAS/KRAS (ratio of KD value with respect to GDP-bound HRAS wild-type protein to KD value with respect to KRAS) ([2]; KD ratio HRAS/KRAS): B (a compound having 3 or more and less than 10 is denoted as B)

CC[C@H](C)[C@@H]1NC(=O)[C@H](CC2CC2)N(C)C(=O)C[C@@H](C(=O)N(C)C)N(C)C(=O)[C@H](C2CCCC2)N(C)C(=O)C2(CC(C)(C)C2)NC(=O)[C@@H]2C[C@@H](C)CN2C(=O)[C@H](CCc2ccc(C(F)(F)F)c(OC)c2)NC(=O)CN(C)C(=O)[C@H](Cc2ccc(C)cc2)N2CC/C=C\C[C@@H](C2=O)N(C)C(=O)CN(C)C1=O [PP1901]
NRAS/KRAS (ratio of KD value for NRAS to KD value for KRAS) ([1]; KD ratio): A (a compound having 10 or more and less than 20 is denoted as A) | HRAS/KRAS (ratio of KD value for HRAS to KD value for KRAS) ([2]; KD ratio): B (a compound having 3 or more and less than 10 is denoted as B)

CCCN(C)C(=O)[C@@H]1CC(=O)N(C)[C@@H](COC)C(=O)N[C@@H]([C@@H](C)CC)C(=O)N(C)CC(=O)N(C)[C@H]2C/C=C\CCN(C2=O)[C@@H](Cc2ccc(C(F)(F)F)cc2)C(=O)N(C)CC(=O)N[C@@H](CCc2ccc(C(F)(F)F)c(OC)c2)C(=O)N2C[C@H](OCC)C[C@H]2C(=O)NC2(CC(C)(C)C2)C(=O)N(C)[C@@H](C2CCCC2)C(=O)N1C [PP1656]
NRAS/KRAS (ratio of KD value for NRAS to KD value for KRAS) ([1]; KD ratio): AA (a compound having 20 or more is denoted as AA) | HRAS/KRAS (ratio of KD value for HRAS to KD value for KRAS) ([2]; KD ratio): A (a compound having 10 or more and less than 20 is denoted as A)

CCCN1C(=O)CN(C)C(=O)CN(C)C(=O)[C@H](CC)NC(=O)[C@H](CC(C)C)N(C)C(=O)C[C@@H](C(=O)N2CCOCC2)N(C)C(=O)[C@H](C2CCCC2)N(C)C(=O)C2(CCCC2)NC(=O)[C@@H]2CCCN2C(=O)[C@H](CCc2ccc(C(F)(F)F)c(Cl)c2)NC(=O)CN(C)C(=O)[C@@H]1Cc1ccc(C(F)(F)F)cc1 [PP0248] ([NMeL][Abu][Sar][Sar][NPrPhe(4-CF3)][Sar][hPhe(3-Cl-4-CF3)]P[Ac5c][NMeGly(cPent)][NMeD]-Morpholide; lactam N-11)
NRAS/KRAS (ratio of KD for GDP-bound NRAS wild-type to KD for KRAS) ([1]; KD ratio NRAS/KRAS): B (a compound having 3 or more and less than 10 is denoted as B) | HRAS/KRAS (ratio of KD for GDP-bound HRAS wild-type to KD for KRAS) ([2]; KD ratio HRAS/KRAS): B (a compound having 3 or more and less than 10 is denoted as B)

CCO[C@@H]1C[C@H]2C(=O)NC3(CCC3)C(=O)N(C)[C@@H](C3CCCC3)C(=O)N(C)[C@H](C(=O)N(C)C)CC(=O)N(C)[C@@H](CC)C(=O)N[C@@H]([C@@H](C)CC)C(=O)N(C)CC(=O)N(C)[C@H]3CC=C(C)CN(C3=O)[C@@H](Cc3ccc(C(F)(F)F)cc3)C(=O)N(C)CC(=O)N[C@@H](CCc3cc(F)c(C(F)(F)F)c(F)c3)C(=O)N2C1 [PP0827]
NRAS/KRAS (ratio of KD value with respect to NRAS to KD value with respect to KRAS) ([1]; KD ratio): C (A compound having a KD ratio of 0.1 or more and less than 3 is denoted as C) | HRAS/KRAS (ratio of KD value with respect to HRAS to KD value with respect to KRAS) ([2]; KD ratio): C (A compound having a KD ratio of 0.1 or more and less than 3 is denoted as C)

CCCN1C(=O)CN(C)C(=O)CN(C)C(=O)[C@H]([C@@H](C)CC)NC(=O)[C@H](CC(C)C)N(C)C(=O)C[C@@H](C(=O)N(C)C)N(C)C(=O)[C@H](C2CCCC2)N(C)C(=O)[C@](C)(COC(C)(C)C)NC(=O)[C@@H]2CCCN2C(=O)[C@H](CCc2cc(F)c(C(F)(F)F)c(F)c2)NC(=O)CN(C)C(=O)[C@@H]1Cc1ccc(C(F)(F)F)cc1 [PP0743] ([NMeL]I[Sar][Sar][NPrPhe(4-CF3)][Sar][hPhe(3,5-F2-4-CF3)]P[αMeS](tBu)[NMeGly(cPent)][NMeD]-NMe2; lactam N-11)
NRAS/KRAS (ratio of KD value with respect to GDP-bound NRAS wild-type protein to KD value with respect to KRAS) ([1]; KD ratio NRAS/KRAS): B (a compound having 3 or more and less than 10 is denoted as B) | HRAS/KRAS (ratio of KD value with respect to GDP-bound HRAS wild-type protein to KD value with respect to KRAS) ([2]; KD ratio HRAS/KRAS): C (A compound having a KD ratio of 0.1 or more and less than 3 is denoted as C)

CC[C@H](C)[C@@H]1NC(=O)[C@H](CC(C)C)N(C)C(=O)C[C@@H](C(=O)N2CCOCC2)N(C)C(=O)[C@H](C2CCCC2)N(C)C(=O)C2(CCC2)NC(=O)[C@@H]2[C@@H](OCC3CCCC3)CCN2C(=O)[C@H](CCc2cc(F)c(C(F)(F)F)c(F)c2)NC(=O)CN(C)C(=O)[C@H](Cc2ccc(C(F)(F)F)cc2)N2CCCC[C@@H](C2=O)N(C)C(=O)CN(C)C1=O [PP1073]
NRAS/KRAS (ratio of KD value with respect to NRAS to KD value with respect to KRAS) ([1]; KD ratio): B (a compound having 3 or more and less than 10 is denoted as B) | HRAS/KRAS (ratio of KD value with respect to HRAS to KD value with respect to KRAS) ([2]; KD ratio): B (a compound having 3 or more and less than 10 is denoted as B)

CCO[C@@H]1C[C@H]2C(=O)NC3(CCC3)C(=O)N(C)[C@@H](C3CCCC3)C(=O)N(C)[C@H](C(=O)N(C)CC)CC(=O)N(C)[C@H]3CCCCCc4ccc(cc4)C[C@@H](C(=O)N(C)CC(=O)N[C@@H](CCc4ccc(C(F)(F)F)c(OC)c4)C(=O)N2C1)N1CC/C=C\C[C@@H](C1=O)N(C)C(=O)CN(C)C(=O)[C@H]([C@@H](C)CC)NC3=O [PP2118]
NRAS/KRAS (ratio of KD value with respect to NRAS to KD value with respect to KRAS) [1]: A (a compound having 10 or more and less than 20 is denoted as A) | HRAS/KRAS (ratio of KD value with respect to HRAS to KD value with respect to KRAS) [2]: B (a compound having 3 or more and less than 10 is denoted as B)
